Experimental data taken from patent publication US12473282B2, “Biphenyl fluorine double bond derivative, preparation method therefor, and pharmaceutical application thereof” (Abbisko Therapeutics Co., Ltd., priority 2020, dated 2025).

Assay: Jurkat reporter gene cellular assay
Assay type: cell-based
Conditions: Homo sapiens; Jurkat/NF-κB-luc/PD1 + Raji-PD-L1 coculture, OKT3 1 μg/mL, 6 hrs, activation fold; read-out: Cell Activity EC50
Experimental: The effect of compounds of the examples of the present invention and positive compounds on the interaction between PD-1 and PD-L1 expressed on cell surfaces, and the related influence on T cell functions, were determined by a Jurkat reporter gene cellular assay.
Briefly, the reporter gene plasmid of NF-κB-luc and the plasmid of human PD-1 were transfected into Jurkat cells to establish a stably transfected cell line capable of stably expressing both PD-1 and NF-κB-Luc reporter genes; the expression level of PD-1 on the cell surface was confirmed by flow cytometry; and the expression of the reporter gene was confirmed via the response of the reporter gene stimulated by OKT-3 and Raiji cells.
In addition, the plasmid of human PD-L1 was transfected into Raji cells to obtain a cell line capable of stably expressing PD-L1. Jurkat/NF-κB-luc/PD1 cells and Raji-PD-L1 cells were then cocultured and stimulated with OKT-3. On this basis, the compounds were added, and the enhancement of the signal pathway of T cell activation by the inhibitory effect of the compounds on the interaction between PD-1 and PD-L1 was evaluated by readings of reporter gene responses. The specific experimental process was as follows: • 1. 30 μL of compound or antibody solution was added to each well of a white 96-well plate (corning, 3610) at different diluted concentrations, and 10 μL of OKT3 (Biolegend, 317326) was then added (the final concentration of OKT3: 1 μg/mL); • 2. 20 μL of Raji-PD-L1 cell suspension was added to each well with 5*10^4 cells for each well, and was incubated in an incubator for 20 min; • 3. 20 μL of Jurkat/NF-Kb-luc/PD-1 cell suspension was added to each well with 5*10^4 cells for each well, and well mixed, and 6 hrs later, Bright-glo (Promega, E2620) was applied and plates were read on Envision; • 4. The reading of each well treated with the compound was compared with the reading of each well treated with DMSO to obtain the activation fold of the compound; • 5. EC50 values of compounds and positive compounds of the examples of the present invention were determined by non-linear regression analysis of activation folds at different compound concentrations.

| Compound | EC50 |
| --- | --- |
| Cc1c(/C=C(\F)c2nc3c(n2C)CCNC3)cccc1-c1cccc(NC(=O)c2nc3c(n2C)CCN(CCC24CCC(C(=O)O)(CC2)C4)C3)c1C [Example 2, (Z)-4-(2-(2-((3′-(2-fluoro-2-(1-methyl-4,5,6,7-tetrahydro-1H-imidazo [4,5-c]pyridin-2-yl)vinyl)-2,2′-dimethyl-[1,1′-biphenyl]-3-yl)carbamoyl)-1-methyl-1,4,6,7-tetrahydro-5H-imidazo[4,5-c]pyridin-5-yl)ethyl)bicyclo[2.2.1]heptane-1-carboxylic acid] | 244 nM |
| Cc1c(/C=C(\F)c2nc3c(n2C)CCN(C[C@@H](C)O)C3)cccc1-c1cccc(NC(=O)c2nc3c(n2C)CCN(CCC24CCC(C(=O)O)(CC2)C4)C3)c1C [Example 3, (R,Z)-4-(2-(2-((3′-(2-fluoro-2-(5-(2-hydroxypropyl)-1-methyl-4,5,6,7-tetrahydro-1H-imidazo[4,5-c]pyridin-2-yl)vinyl)-2,2′-dimethyl-[1,1′-biphenyl]-3-yl)carbamoyl)-1-methyl-1,4,6,7-tetrahydro-5H-imidazo[4,5-c]pyridin-5-yl)ethyl)bicyclo[2.2.1]heptane-1-carboxylic acid] | 95.2 nM |
| Cc1c(/C=C(\F)c2nc3c(n2C)CCN(C(C)C)C3)cccc1-c1cccc(NC(=O)c2nc3c(n2C)CCN(CCC24CCC(C(=O)O)(CC2)C4)C3)c1Cl [Example 4, (Z)-4-(2-(2-((2-chloro-3′-(2-fluoro-2-(5-isopropyl-1-methyl-4,5,6,7-tetrahydro-1H-imidazo[4,5-c]pyridin-2-yl)vinyl)-2′-methyl-[1,1′-biphenyl]-3-yl)carbamoyl)-1-methyl-1,4,6,7-tetrahydro-5H-imidazo [4,5-c]pyridin-5-yl)ethyl)bicyclo[2.2.1]heptane-1-carboxylic acid] | 289 nM |
| Cc1c(/C=C(\F)c2nc3c(n2C)CCN(CCC24CCC(C(=O)O)(CC2)C4)C3)cccc1-c1cccc(NC(=O)c2nc3c(n2C)CCN(C(C)C)C3)c1C [Example 5, (Z)-4-(2-(2-(1-fluoro-2-(3′-(5-isopropyl-1-methyl-4,5,6,7-tetrahydro-1H-imidazo[4,5-c]pyridine-2-carboxamido)-2,2′-dimethyl-[1,1′-biphenyl]-3-yl)vinyl)-1-methyl-1,4,6,7-tetrahydro-5H-imidazo[4,5-c]pyridin-5-yl)ethyl)bicyclo[2.2.1]heptane-1-carboxylic acid] | 719 nM |
| Cc1c(/C=C(\F)c2nc3c(n2C)CCN(C(C)C)C3)cccc1-c1cccc(NC(=O)c2nc3c(n2C)CCN(CC24CCC(C(=O)O)(CC2)C4)C3)c1C [Example 6, (Z)-4-((2-((3′-(2-fluoro-2-(5-isopropyl-1-methyl-4,5,6,7-tetrahydro-1H-imidazo[4,5-c]pyridin-2-yl)vinyl)-2,2′-dimethyl-[1,1′-biphenyl]-3-yl)carbamoyl)-1-methyl-1,4,6,7-tetrahydro-5H-imidazo[4,5-c]pyridin-5-yl)methyl)bicyclo[2.2.1]heptane-1-carboxylic acid] | 973 nM |
| Cc1c(/C=C(\F)c2cc(C3CC3)c(CN3CCCC[C@H]3C(=O)O)cn2)cccc1-c1cccc(NC(=O)c2nc3c(n2C)CCN(C(C)C)C3)c1C [Example 18, (S,Z)-1-((4-cyclopropyl-6-(1-fluoro-2-(3′-(5-isopropyl-1-methyl-4,5,6,7-tetrahydro-1H-imidazo[4,5-c]pyridine-2-carboxamido)-2,2′-dimethyl-[1,1′-biphenyl]-3-yl)vinyl)pyridin-3-yl)methyl)piperidine-2-carboxylic acid] | 249 nM |
| Cc1c(/C=C(\F)c2cc(C3CC3)c(CN3CCCC[C@H]3C(=O)O)cn2)cccc1-c1cccc(NC(=O)c2nc3c(n2C)CCN(C[C@@H](C)O)C3)c1C [Example 19, (S)-1-((4-cyclopropyl-6-((Z)-1-fluoro-2-(3′-(5-((R)-2-hydroxypropyl)-1-methyl-4,5,6,7-tetrahydro-1H-imidazo[4,5-c]pyridine-2-carboxamido)-2,2′-dimethyl-[1,1′-biphenyl]-3-yl)vinyl)pyridin-3-yl)methyl)] | 192 nM |

Further lines, results first:

| EC50 | Compound |
| --- | --- |
| 118 nM | COc1cc(/C(F)=C/c2cccc(-c3cccc(NC(=O)c4nc5c(n4C)CCN(CCC46CCC(C(=O)O)(CC4)C6)C5)c3Cl)c2Cl)ncc1CN1CC(O)C1 [Example 42, (Z)-4-(2-(2-((2,2′-dichloro-3′-(2-fluoro-2-(5-((3-hydroxyazetidin-1-yl)methyl)-4-methoxypyridin-2-yl)vinyl)-[1,1′-biphenyl]-3-yl)carbamoyl)-1-methyl-1,4,6,7-tetrahydro-5H-imidazo[4,5-c]pyridin-5-yl)ethyl)bicyclo[2.2.1]heptane-1-carboxylic acid] |
| 137 nM | COc1cc(/C(F)=C/c2cccc(-c3cccc(NC(=O)c4nc5c(n4C)CCN(CCC46CCC(C(=O)O)(CC4)C6)C5)c3Cl)c2Cl)ncc1CNCCCO [Example 43, (Z)-4-(2-(2-((2,2′-dichloro-3′-(2-fluoro-2-(5-(((3-hydroxypropyl)amino)methyl)-4-methoxypyridin-2-yl)vinyl)-[1,1′-biphenyl]-3-yl)carbamoyl)-1-methyl-1,4,6,7-tetrahydro-5H-imidazo[4,5-c]pyridin-5-yl)ethyl)bicyclo[2.2.1]heptane-1-carboxylic acid] |
| 105 nM | COc1cc(/C(F)=C/c2cccc(-c3cccc(NC(=O)c4nc5c(n4C)CCN(CCC46CCC(C(=O)O)(CC4)C6)C5)c3Cl)c2Cl)ncc1CN[C@@H](C)CO [Example 44, (S,Z)-4-(2-(2-((2,2′-dichloro-3′-(2-fluoro-2-(5-(((1-hydroxypropan-2-yl)amino)methyl)-4-methoxypyridin-2-yl)vinyl)-[1,1′-biphenyl]-3-yl)carbamoyl)-1-methyl-1,4,6,7-tetrahydro-5H-imidazo[4,5-c]pyridin-5-yl)ethyl)bicyclo[2.2.1]heptane-1-carboxylic acid] |
| 114 nM | COc1cc(/C(F)=C/c2cccc(-c3cccc(NC(=O)c4nc5c(n4C)CCN(CCC46CCC(C(=O)O)(CC4)C6)C5)c3Cl)c2Cl)ncc1CN[C@H]1C[C@@H](O)C1 [Example 45, 4-(2-(2-((2,2′-dichloro-3′-((Z)-2-fluoro-2-(5-((((1S,3S)-3-hydroxycyclobutyl)amino)methyl)-4-methoxypyridin-2-yl)vinyl)-[1,1′-biphenyl]-3-yl)carbamoyl)-1-methyl-1,4,6,7-tetrahydro-5H-imidazo[4,5-c]pyridin-5-yl)ethyl)bicyclo[2.2.1]heptane-1-carboxylic acid] |
| 152 nM | COc1cc(/C(F)=C/c2cccc(-c3cccc(NC(=O)c4nc5c(n4C)CCN(CCC46CCC(C(=O)O)(CC4)C6)C5)c3Cl)c2Cl)ncc1CNCC(C)(C)O [Example 46, (Z)-4-(2-(2-((2,2′-dichloro-3′-(2-fluoro-2-(5-(((2-hydroxy-2-methylpropyl)amino)methyl)-4-methoxypyridin-2-yl)vinyl)-[1,1′-biphenyl]-3-yl)carbamoyl)-1-methyl-1,4,6,7-tetrahydro-5H-imidazo[4,5-c]pyridin-5-yl)ethyl)bicyclo[2.2.1]heptane-1-carboxylic acid] |
| 147 nM | COc1cc(/C(F)=C/c2cccc(-c3cccc(NC(=O)c4nc5c(n4C)CCN(CCC46CCC(C(=O)O)(CC4)C6)C5)c3Cl)c2Cl)ncc1CNC1CC1 [Example 47, (Z)-4-(2-(2-((2,2′-dichloro-3′-(2-(5-((cyclopropylamino)methyl)-4-methoxypyridin-2-yl)-2-fluorovinyl)-[1,1′-biphenyl]-3-yl)carbamoyl)-1-methyl-1,4,6,7-tetrahydro-5H-imidazo[4,5-c]pyridin-5-yl)ethyl) bicyclo[2.2. l]heptane-1-carboxylic acid] |
